Results published in paper PMC9006931, “Altered Response Pattern following AZD5582 Treatment of SIV-Infected, ART-Suppressed Rhesus Macaque Infants” (Journal of Virology, 2022).

Assays:
[1] = Tolerability of repeated AZD5582 infusions in infant RMs; assay type: in vivo; conditions: 0.1 mg/kg i.v., 10 infusions
Description: The IAPi AZD5582 was reconstituted to 0.4 mg/mL in 10% Captisol within 1 week of administration as previously described ([17]). Monkeys assigned to the experimental intervention group received 10 administrations of 0.1 mg/kg AZD5582 by intravenous (i.v.) infusion with an inline filter for 30 minutes every week for 10 weeks.
EDTA-anticoagulated blood samples were collected regularly and used for a complete blood count, routine chemical analysis, and immunostaining, with plasma separated by centrifugation within 1 h of phlebotomy. PBMCs were prepared by density gradient centrifugation. Lymph node biopsy specimens were collected at indicated time points (Fig. 2A). Lymph nodes were ground using a 70-μm cell strainer. Cell suspensions were washed and immediately used for immunostaining or cryopreserved at −80°C until use.

[2] = system: ncNF-κB pathway genes BIRC3 and NFkB2; assay: Ex vivo AZD5582 stimulation of sorted naive and memory CD4+ T cells, target gene RT-qPCR; assay type: cell-based, rhesus macaque; conditions: 1000 nM (n = 6) or 100 nM (n = 4) AZD5582, 24 h
Text: We have previously shown that naive CD4^+ T cells are a major contributor to the viral reservoir in both SIV- and SHIV-infected infant macaques ([10], [11]). We were therefore interested to determine whether the dampened ART viremia that we observed in vivo was due to differential induction of ncNF-kB activation in naive and memory CD4^+ T cells following AZD5582 treatment. It is well documented that activation of naive CD4^+ T cells relies predominantly on cNF-κB and not the ncNF-κB pathway ([22]). […]
For cell sorting, peripheral CD4^+ T cells were first enriched by negative selection with the use of magnetic beads and column purification (nonhuman primate CD4^+ T cell isolation kit; Miltenyi). Enriched CD4^+ T cells were then stained with viability dye (Live/Dead Aqua) and previously determined volumes of the following fluorescently conjugated MAbs: CD3-AF700 (clone SP34-2), CD8-APC-Cy7 (clone SK1), CD95-PE-Cy5 (clone DX2), CD62L-PE (clone SK11), and CCR7-PE-Cy7 (clone 3D12) from BD Biosciences; CD4-BV650 from BioLegend. […]
Naïve and memory CD4^+ T cells were treated with 100 or 1000 nM AZD5582 for 24 h and then stored as a dry pellet until RNA extraction. […] Gene expression was normalized to TATA box binding protein (TBP) and the comparative threshold cycle (Ct) method (ΔΔCt) was used for relative quantification of gene expression. […]

[3] = system: CD4+ T cells from SIV-infected, ART-suppressed infant RMs; assay: Ex vivo viral RNA induction assay, infant CD4+ T cells; assay type: cell-based, rhesus macaque; conditions: 100 nM, 9 days, in presence of DTG+FTC
Text: Following confirmation of ncNF-κB pathway activation in infant naive and memory CD4^+ T cells ex vivo, we next sought to evaluate SIV reactivation following ex vivo AZD5582 stimulation in CD4^+ T cells isolated from SIV-infected, ART-suppressed infant RMs compared to CD4^+ T cells from SIV-infected, ART-suppressed adult RMs. To do so, we isolated CD4^+ T cells through negative selection from the peripheral blood of five SIV-infected, ART-suppressed adult RMs and five SIV-infected, ART-suppressed infant RMs. Cells were stimulated with either 100 nM AZD5582 or rhesus specific anti-CD2/CD3/CD28 beads (as a positive control) in the presence of ART (DTG+FTC) for 9 days. The supernatant was collected to quantify SIVgag RNA through qPCR as a measure of viral reactivation.
Viable cryopreserved PBMCs from SIV-infected, ART-suppressed infant and adult RMs collected 34 to 97 weeks post ART initiation were thawed, and CD4^+ T cells were enriched by negative selection using the NHP CD4^+ T cell isolation kit (Miltenyi Biotec). […] The viral RNA content of frozen cell-free culture supernatants collected on day 9 was determined using the SIVgag qPCR described above.

SIVmac239 = system: SIVmac239; set-up: method as in PMID 31969707; conditions: adult RMs; cited from earlier work

CN[C@@H](C)C(=O)N[C@H](C(=O)N1CCC[C@H]1C(=O)N[C@H]1c2ccccc2C[C@H]1OCC#CC#CCO[C@@H]1Cc2ccccc2[C@@H]1NC(=O)[C@@H]1CCCN1C(=O)[C@@H](NC(=O)[C@H](C)NC)C1CCCCC1)C1CCCCC1 [AZD5582]
Tolerability / clinical adverse events [1]: well-tolerated and safe
Fold induction of BIRC3 gene expression, naive versus memory CD4+ T cells [2]: No significant difference
Fold induction of NFkB2 gene expression, naive versus memory CD4+ T cells [2]: No significant difference
Animals whose CD4+ T cell cultures showed increased SIV RNA expression in supernatant [3]: 1/5
SIV reactivation, events >60 copies/ml (SIVmac239): 64/140
SIV reactivation, events >60 copies/ml (percent) (SIVmac239): 46%
SIV reactivation, per animal (RMs with on-ART viremia) (SIVmac239): 5/9
SIV reactivation, per animal (percent) (SIVmac239): 56%
